Several values for one entry are separate records, joined by “and”; a condition that tells them apart may be missing. Identical values can stand only once.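 GI50 = concentration required for 50% inhibition of growth. TGI is the concentration that stops growth completely.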
Experiments:
Assay in all cases: NCI-60 cell line screen, 384-well format
COLO 205 colon = system: COLO 205 colon
UO-31 renal = system: UO-31 renal
EKVX NSCLC = system: EKVX NSCLC
LOX IMVI melanoma = system: LOX IMVI melanoma
KM12 colon = system: KM12 colon
OVCAR-8 ovarian = system: OVCAR-8 ovarian
CCRF-CEM leukemia = system: CCRF-CEM leukemia
SF-539 CNS = system: SF-539 CNS
UACC-62 melanoma = system: UACC-62 melanoma
OVCAR-3 ovarian = system: OVCAR-3 ovarian
BT-549 breast = system: BT-549 breast
MDA-MB-231 breast = system: MDA-MB-231 breast
UACC-257 melanoma = system: UACC-257 melanoma
ACHN renal = system: ACHN renal
HCC-2998 colon = system: HCC-2998 colon
CAKI-1 renal = system: CAKI-1 renal
PC-3 prostate = system: PC-3 prostate
SNB-75 CNS = system: SNB-75 CNS
HL-60(TB) leukemia = system: HL-60(TB) leukemia
RXF 393 renal = system: RXF 393 renal
NCI-H460 NSCLC = system: NCI-H460 NSCLC
SR leukemia = system: SR leukemia
SK-MEL-5 melanoma = system: SK-MEL-5 melanoma
NCI/ADR-RES ovarian = system: NCI/ADR-RES ovarian
DU-145 prostate = system: DU-145 prostate
MOLT-4 leukemia = system: MOLT-4 leukemia
M14 melanoma = system: M14 melanoma
SK-OV-3 ovarian = system: SK-OV-3 ovarian
MDA-MB-435 melanoma = system: MDA-MB-435 melanoma
HT29 colon = system: HT29 colon
A549 NSCLC = system: A549 NSCLC
RPMI-8226 leukemia = system: RPMI-8226 leukemia
T-47D breast = system: T-47D breast
SNB-19 CNS = system: SNB-19 CNS
SF-268 CNS = system: SF-268 CNS
K-562 leukemia = system: K-562 leukemia
NCI-H522 lung = system: NCI-H522 lung
SN12C renal = system: SN12C renal
NCI-H23 lung = system: NCI-H23 lung
A498 renal = system: A498 renal
HS 578T breast = system: HS 578T breast
IGROV1 ovarian = system: IGROV1 ovarian
HCT-15 colon = system: HCT-15 colon
U251 glioblastoma = system: U251 glioblastoma
SK-MEL-28 melanoma = system: SK-MEL-28 melanoma
TK-10 renal = system: TK-10 renal
MDA-MB-468 breast = system: MDA-MB-468 breast
SF-295 CNS = system: SF-295 CNS
MALME-3M melanoma = system: MALME-3M melanoma
786-0 renal = system: 786-0 renal
HOP-62 NSCLC = system: HOP-62 NSCLC
SW-620 colon = system: SW-620 colon
NCI-H322M lung = system: NCI-H322M lung
OVCAR-4 ovarian = system: OVCAR-4 ovarian
MCF7 breast = system: MCF7 breast
NCI-H226 lung = system: NCI-H226 lung
HOP-92 NSCLC = system: HOP-92 NSCLC
HCT-116 colon = system: HCT-116 colon

`Cc1cc(C(=O)NC(CCC(=O)O)C(=O)O)sc1CCC1CNc2nc(N)[nH]c(=O)c2C1` (stereo unspecified) was tested, and the GI50 (COLO 205 colon) was 28.5 nM and 29.7 nM, the TGI (COLO 205 colon) was 81.6 nM and 141 nM and the GI50 (UO-31 renal) was < 10 nM and 18.7 nM. The TGI (UO-31 renal) was < 10 nM and 39.1 nM, the GI50 (EKVX NSCLC) was 12 nM and 17.1 nM and the TGI (EKVX NSCLC) was 28.8 nM and 36.1 nM. For the same molecule, the GI50 (LOX IMVI melanoma) was 19.4 nM and 20 nM, the TGI (LOX IMVI melanoma) was 40.7 nM and 44.4 nM and the GI50 (KM12 colon) was 25.6 nM and 28.7 nM. The TGI (KM12 colon) was 97.6 nM and 196 nM, the GI50 (OVCAR-8 ovarian) was under 10 nM and the TGI (OVCAR-8 ovarian) was < 10 nM and 11.6 nM. The GI50 (CCRF-CEM leukemia) was under 10 nM, the TGI (CCRF-CEM leukemia) was 11.8 nM and 18.6 nM and the GI50 (SF-539 CNS) was under 10 nM. For the same molecule, the TGI (SF-539 CNS) was < 10 nM and 20.5 nM, the GI50 (UACC-62 melanoma) was 11.3 nM and 25.6 nM and the TGI (UACC-62 melanoma) was 59.4 nM and 75.1 nM. The GI50 (OVCAR-3 ovarian) was 21.7 nM and 29 nM, the TGI (OVCAR-3 ovarian) was 53.9 nM and 82.6 nM and the GI50 (BT-549 breast) was 19.3 nM and 18.2 nM. For the same molecule, the TGI (BT-549 breast) was 37.5 nM and 36.4 nM, the GI50 (MDA-MB-231 breast) was 388 nM and 1680 nM and the TGI (MDA-MB-231 breast) was 1430 nM and 3460 nM. For the same molecule, the GI50 (UACC-257 melanoma) was 12.9 nM and 18.3 nM, the TGI (UACC-257 melanoma) was 36.5 nM and 46.9 nM and the GI50 (ACHN renal) was < 10 nM and 19.6 nM. For the same molecule, the TGI (ACHN renal) was < 10 nM and 43.1 nM, the GI50 (HCC-2998 colon) was 22.4 nM and 51.4 nM and the TGI (HCC-2998 colon) was 77.2 nM and 378 nM. For the same molecule, the GI50 (CAKI-1 renal) was under 10 nM, the TGI (CAKI-1 renal) was under 10 nM and the GI50 (PC-3 prostate) was under 10 nM. The TGI (PC-3 prostate) was under 10 nM, the GI50 (SNB-75 CNS) was under 10 nM and the TGI (SNB-75 CNS) was < 10 nM and 14.3 nM. For the same molecule, the GI50 (HL-60(TB) leukemia) was under 10 nM, the TGI (HL-60(TB) leukemia) was < 10 nM and 14.1 nM and the GI50 (RXF 393 renal) was under 10 nM. For the same molecule, the TGI (RXF 393 renal) was under 10 nM, the GI50 (NCI-H460 NSCLC) was < 10 nM and 10.9 nM and the TGI (NCI-H460 NSCLC) was over 100000 nM. For the same molecule, the GI50 (SR leukemia) was over 100000 nM, the TGI (SR leukemia) was over 100000 nM and the GI50 (SK-MEL-5 melanoma) was 24.5 nM and 33.3 nM. The TGI (SK-MEL-5 melanoma) was 91.6 nM and 202 nM, the GI50 (NCI/ADR-RES ovarian) was 19 nM and 17.5 nM and the TGI (NCI/ADR-RES ovarian) was 35.6 nM and 34 nM. For the same molecule, the GI50 (DU-145 prostate) was under 10 nM, the TGI (DU-145 prostate) was < 10 nM and 29.4 nM and the GI50 (MOLT-4 leukemia) was under 10 nM. For the same molecule, the TGI (MOLT-4 leukemia) was 12.8 nM and 16.8 nM, the GI50 (M14 melanoma) was under 10 nM and the TGI (M14 melanoma) was < 10 nM and 22.8 nM. The GI50 (SK-OV-3 ovarian) was under 10 nM, the TGI (SK-OV-3 ovarian) was under 10 nM and the GI50 (MDA-MB-435 melanoma) was 17.3 nM and 16.7 nM. The TGI (MDA-MB-435 melanoma) was 38.2 nM and 38.7 nM, the GI50 (HT29 colon) was < 10 nM and 17 nM and the TGI (HT29 colon) was 28.5 nM and 46.4 nM. For the same molecule, the GI50 (A549 NSCLC) was 20.1 nM and 24.2 nM, the TGI (A549 NSCLC) was 42.8 nM and 61 nM and the GI50 (RPMI-8226 leukemia) was 17.7 nM and 17.1 nM. For the same molecule, the TGI (RPMI-8226 leukemia) was 35.4 nM and 36 nM, the GI50 (T-47D breast) was 23.8 nM and 30.3 nM and the TGI (T-47D breast) was over 100000 nM. The GI50 (SNB-19 CNS) was < 10 nM and 13 nM, the TGI (SNB-19 CNS) was < 10 nM and 30.1 nM and the GI50 (SF-268 CNS) was under 10 nM. The TGI (SF-268 CNS) was < 10 nM and 18.7 nM, the GI50 (K-562 leukemia) was under 10 nM and the TGI (K-562 leukemia) was under 10 nM. For the same molecule, the GI50 (NCI-H522 lung) was < 10 nM and 17.6 nM, the TGI (NCI-H522 lung) was 18.7 nM and 34.3 nM and the GI50 (SN12C renal) was under 10 nM. The TGI (SN12C renal) was < 10 nM and 23.4 nM, the GI50 (NCI-H23 lung) was 29 nM and 150 nM and the TGI (NCI-H23 lung) was 85.4 nM and 401 nM. For the same molecule, the GI50 (A498 renal) was under 10 nM, the TGI (A498 renal) was 11.3 nM and 25.3 nM and the GI50 (HS 578T breast) was 22 nM and 25.9 nM. For the same molecule, the TGI (HS 578T breast) was 60.1 nM and 107 nM, the GI50 (IGROV1 ovarian) was 19.7 nM and 20.3 nM and the TGI (IGROV1 ovarian) was 40.9 nM and 43.8 nM. For the same molecule, the GI50 (HCT-15 colon) was 25 nM and 31.4 nM, the TGI (HCT-15 colon) was 73.3 nM and 158 nM and the GI50 (U251 glioblastoma) was < 10 nM and 16.4 nM. For the same molecule, the TGI (U251 glioblastoma) was 22.9 nM and 33.5 nM, the GI50 (SK-MEL-28 melanoma) was 13.2 nM and 16.9 nM and the TGI (SK-MEL-28 melanoma) was 29.6 nM and 34.7 nM. For the same molecule, the GI50 (TK-10 renal) was under 10 nM, the TGI (TK-10 renal) was under 10 nM and the GI50 (MDA-MB-468 breast) was 17.5 nM and 17.6 nM. The TGI (MDA-MB-468 breast) was 33.9 nM and 37.5 nM, the GI50 (SF-295 CNS) was 18.4 nM and 18.6 nM and the TGI (SF-295 CNS) was 35.4 nM and 36.3 nM. For the same molecule, the GI50 (MALME-3M melanoma) was 16 nM and 19.8 nM, the TGI (MALME-3M melanoma) was 35.8 nM and 41.1 nM and the GI50 ([…]-0 renal) was under 10 nM. The TGI (786-0 renal) was under 10 nM, the GI50 (HOP-62 NSCLC) was 18.2 nM and the TGI (HOP-62 NSCLC) was 34.6 nM and 35.8 nM. For the same molecule, the GI50 (SW-620 colon) was < 10 nM and 13.3 nM, the TGI (SW-620 colon) was 21.1 nM and 35.6 nM and the GI50 (NCI-H322M lung) was 17.8 nM and 20.2 nM. The TGI (NCI-H322M lung) was 37 nM and 43.5 nM, the GI50 (OVCAR-4 ovarian) was 20.5 nM and 22 nM and the TGI (OVCAR-4 ovarian) was 88.1 nM and 70.7 nM. The GI50 (MCF7 breast) was < 10 nM and 17.5 nM, the TGI (MCF7 breast) was 28 nM and 47.7 nM and the GI50 (NCI-H226 lung) was 24.2 nM and 25.8 nM. The TGI (NCI-H226 lung) was 59.1 nM and 75.1 nM, the GI50 (HOP-92 NSCLC) was under 10 nM and the TGI (HOP-92 NSCLC) was < 10 nM and 14.9 nM. For the same molecule, the GI50 (HCT-116 colon) was < 10 nM and 15.9 nM and the TGI (HCT-116 colon) was 24.8 nM and 39.8 nM.
